Data taken from PubChem BioAssay (NCI).
Several values for one entry are separate records, joined by “and”; a condition that tells them apart may be missing. Equal values may be shown once.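 Briefly, cells in 96-well plates were exposed to five compound concentrations for 48 h, and endpoints were estimated by linear interpolation. GI50 marks 50% less growth. Definition used: TGI = concentration required for complete inhibition of growth.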

Tests used:
Assay in all cases: DTP human tumour cell line panel, 48 h; in the data active means GI50 below about 0.43 µM; inactive means the rest
[1] = system: NCI-H522 lung
[2] = system: RXF 393 renal
[3] = system: SK-OV-3 ovarian
[4] = system: NCI-H226 lung
[5] = system: IGROV1 ovarian
[6] = system: OVCAR-4 ovarian
[7] = system: HOP-62 NSCLC
[8] = system: UACC-257 melanoma
[9] = system: KM12 colon
[10] = system: DU-145 prostate
[11] = system: SF-539 CNS
[12] = system: NCI-H23 lung
[13] = system: MCF7 breast
[14] = system: OVCAR-8 ovarian
[15] = system: HT29 colon
[16] = system: A549 NSCLC
[17] = system: NCI-H460 lung
[18] = system: MDA-MB-231 breast
[19] = system: OVCAR-5 ovarian
[20] = system: UACC-62 melanoma
[21] = system: MOLT-4 leukemia
[22] = system: PC-3 prostate
[23] = system: CCRF-CEM leukemia
[24] = system: SR leukemia
[25] = system: SK-MEL-5 melanoma
[26] = system: OVCAR-3 ovarian
[27] = system: SW-620 colon
[28] = system: MDA-MB-435
[29] = system: SNB-19 CNS
[30] = system: TK-10 renal
[31] = system: COLO 205 colon
[32] = system: BT-549 breast
[33] = system: UO-31 renal
[34] = system: LOX IMVI melanoma
[35] = system: CAKI-1 renal
[36] = system: HCT-116 colon
[37] = system: M14 melanoma
[38] = system: SF-295 CNS
[39] = system: ACHN renal
[40] = system: HS 578T breast
[41] = system: T-47D breast
[42] = system: SK-MEL-2 melanoma
[43] = system: SNB-75 CNS
[44] = system: HCC-2998 colon
[45] = system: SN12C renal
[46] = system: A498 renal
[47] = system: RPMI-8226 leukemia
[48] = system: HCT-15 colon
[49] = system: 786-0 renal
[50] = system: SF-268 CNS
[51] = system: EKVX NSCLC
[52] = system: SK-MEL-28 melanoma
[53] = system: U251 CNS
[54] = system: K-562 leukemia
[55] = system: HOP-92 NSCLC
[56] = system: MALME-3M melanoma
[57] = system: NCI/ADR-RES ovarian

COc1ccc(C2=C(c3cc(OC)c(OC)c(OC)c3)C(=O)OC2)cc1OC
inactive: GI50 [3] 8.27 µM | GI50 [4] 6.06 µM | GI50 [6] 2.65 µM | GI50 [8] > 38.6 µM | GI50 [10] 0.821 µM | GI50 [18] 0.576 µM | GI50 [29] 0.891 µM | GI50 [32] 12.1 µM | GI50 [34] 0.428 µM | GI50 [39] 67.5 µM | GI50 [41] 54 µM | GI50 [43] > 100 µM | GI50 [45] 0.567 µM | GI50 [51] 34.5 µM | GI50 [52] 47.6 µM | GI50 [55] 6.65 µM
> 24.3 µM: TGI [15]
> 79.5 µM: TGI [20]
1.76 µM: TGI [37]
73.1 µM: TGI [45]
0.961 µM: TGI [47]
97.9 µM: TGI [32]
1.91 µM: TGI [30]
> 29.1 µM: TGI [16]
< 0.0206 µM: TGI [26]
13.4 µM: TGI [12]
0.299 µM: TGI [44]
> 100 µM: TGI [2] | TGI [3] | TGI [6] | TGI [7] | TGI [10] | TGI [13] | TGI [21] | TGI [22] | TGI [23] | TGI [27] | TGI [29] | TGI [39] | TGI [41] | TGI [42] | TGI [43] | TGI [48] | TGI [51] | TGI [52] | TGI [53] | TGI [54] | TGI [55]
> 62.3 µM: TGI [49]
> 50.9 µM: TGI [33]
> 49.4 µM: TGI [34]
39.1 µM: TGI [40]
> 48.4 µM: TGI [19]
> 46.7 µM: TGI [1]
> 75.9 µM: TGI [18]
21.3 µM: TGI [46]
> 55.6 µM: TGI [5]
> 81.1 µM: TGI [8]
30.5 µM: TGI [50]
0.941 µM: TGI [31]
55.5 µM: TGI [36]
0.0109 µM: TGI [28]
1.5 µM: TGI [25]
> 28.5 µM: TGI [4]
> 42.6 µM: TGI [17]
1.24 µM: TGI [35]
4.1 µM: TGI [11]
active: GI50 [1] < 0.0189 µM | GI50 [2] 0.0146 µM | GI50 [5] 0.353 µM | GI50 [7] 0.0465 µM | GI50 [9] < 0.0164 µM | GI50 [11] 0.301 µM | GI50 [12] 0.0251 µM | GI50 [13] < 0.0187 µM | GI50 [14] 0.163 µM | GI50 [15] 0.0256 µM | GI50 [16] 0.25 µM | GI50 [17] < 0.0222 µM | GI50 [19] 0.379 µM | GI50 [20] 0.336 µM | GI50 [21] 0.0466 µM | GI50 [22] < 0.0151 µM | GI50 [23] < 0.01 µM | GI50 [24] < 0.01 µM | GI50 [25] 0.0182 µM | GI50 [26] < 0.0112 µM | GI50 [27] 0.105 µM | GI50 [28] < 0.01 µM | GI50 [30] < 0.0283 µM | GI50 [31] 0.295 µM | GI50 [33] 0.284 µM | GI50 [35] < 0.01 µM | GI50 [36] 0.0548 µM | GI50 [37] 0.0231 µM | GI50 [38] < 0.01 µM | GI50 [40] 0.123 µM | GI50 [42] 0.0313 µM | GI50 [44] 0.025 µM | GI50 [46] 0.134 µM | GI50 [47] < 0.0199 µM | GI50 [48] 0.0354 µM | GI50 [49] 0.0522 µM | GI50 [50] 0.0906 µM | GI50 [53] 0.187 µM | GI50 [54] < 0.0153 µM
0.0217 µM: TGI [38]

COc1ccc(-c2cc(-c3ccccc3)c(C#N)c(=O)n2C2OC(COC(C)=O)C(OC(C)=O)C(OC(C)=O)C2OC(C)=O)cc1 (configuration not stated)
> 100 µM: TGI [33] | TGI [47]
inactive: GI50 [47] 47.3 µM and 11.5 µM

CC(C)C1=CC23CCC4C(C)(C(=O)O)CCCC4(C)C2CC1C(C(=O)O)C3C(=O)O (configuration not stated)
> 100 µM: TGI [1] | TGI [2] | TGI [56] | TGI [4] | TGI [5] | TGI [6] | TGI [7] | TGI [9] | TGI [10] | TGI [12] | TGI [14] | TGI [15] | TGI [16] | TGI [17] | TGI [18] | TGI [19] | TGI [20] | TGI [21] | TGI [22] | TGI [23] | TGI [24] | TGI [25] | TGI [26] | TGI [27] | TGI [28] | TGI [29] | TGI [30] | TGI [57] | TGI [32] | TGI [33] | TGI [34] | TGI [35] | TGI [36] | TGI [37] | TGI [38] | TGI [39] | TGI [40] | TGI [41] | TGI [42] | TGI [43] | TGI [45] | TGI [46] | TGI [48] | TGI [49] | TGI [50] | TGI [51] | TGI [52] | TGI [53] | TGI [54] | TGI [55]

CS(=O)(=O)CC(Cc1ccccc1)C(=O)O (configuration not stated)
inactive: GI50 [24] 10.6 mg/L | GI50 [30] 92.1 mg/L
